ChEMBL document CHEMBL1138909, “Structure-activity studies of oxazolidinone analogs as RNA-binding agents” (Bioorg Med Chem Lett, 2006)
Activity calls are given as the source filed them. No cut-off for these calls is given here.

Experiments:
Format in all cases: nucleic-acid assay
[1] = system: Nucleic Acid; experiment: Binding activity at antiterminator RNA AM1A relative to methyl 2-((4R,5S)-4-benzyl-2-oxo-5-((2-phenylacetoxy)methyl)oxazolidin-3-yl)benzoate after 10 mins
[2] = system: Nucleic Acid; experiment: Binding activity at antiterminator RNA AM1A(C11U) after 10 mins
[3] = molecular target: Nucleic Acid; experiment: Binding activity at antiterminator RNA AM1A after 10 mins
[4] = system: Nucleic Acid; experiment: Binding activity at antiterminator RNA AM1A upto 200 uM after 10 mins
[5] = system: Nucleic Acid; experiment: Binding activity at antiterminator RNA AM1A(C11U) upto 200 uM after 10 mins
[6] = molecular target: Nucleic Acid; experiment: Binding activity at antiterminator RNA AM1A(C11U) after 120 mins

SMILES | Activity [1] | Activity [2] | other results
COC(=O)c1ccccc1N1C(=O)O[C@H](COC(=O)C2CCCCC2)[C@H]1CC1CCCCC1 | 0.61 | 0.8 | 
COC(=O)c1ccccc1N1C(=O)O[C@H](COC(=O)Cc2ccccc2)[C@H]1CCCc1ccccc1 | 0.79 | 1.12 | 
COC(=O)c1ccccc1N1C(=O)O[C@H](COC(=O)C2CCCCC2)[C@H]1Cc1ccccc1 | 0.64 | 1.19 | 
CCCCCCCC(=O)OC[C@H]1OC(=O)N(c2ccccc2C(=O)OC)[C@@H]1CCCc1ccccc1 | 1.21 | 0.76 | 
COc1ccc(N2C(=O)O[C@H](COC(=O)Cc3ccccc3)[C@H]2Cc2ccccc2)cc1 | 0.81 | 0.23 | Kd [3]: 3.4 µM; Kd [2]: 25 µM
COC(=O)c1ccccc1N1C(=O)O[C@H](COC(=O)Cc2ccccc2)[C@H]1CC1CCCCC1 | 0.39 | 0.77 | 
CCCCCCCC(=O)OC[C@H]1OC(=O)N[C@@H]1Cc1ccccc1 |  |  | Activity [4]: inactive; Activity [5]: inactive
CCCCCCCC(=O)OC[C@H]1OC(=O)N(c2ccc(OC)cc2)[C@@H]1Cc1ccccc1 | 0.43 | 0.68 | 
CCCCN1C(=O)O[C@H](COC(=O)Cc2ccccc2)[C@H]1CC1CCCCC1 | 0.58 | 0.78 | 
CCCCN1C(=O)O[C@H](COC(=O)C2CCCCC2)[C@H]1CCCc1ccccc1 | 0.65 | 0.78 | 
CCCCN1C(=O)O[C@H](COC(=O)C2CCCCC2)[C@H]1Cc1ccccc1 | 0.48 | 0.59 | 
COC(=O)c1ccccc1N1C(=O)O[C@H](COC(=O)Cc2ccccc2)[C@H]1Cc1ccccc1 |  | 1.47 | Activity [3]: 1
O=C(Cc1ccccc1)OC[C@H]1OC(=O)N[C@@H]1Cc1ccccc1 |  |  | Kd [3]: 9 µM; Kd [2]: 125 µM
COc1ccc(N2C(=O)O[C@H](COC(=O)C3CCCCC3)[C@H]2CCCc2ccccc2)cc1 | 0.64 | 0.7 | 
CCCCCCCC(=O)OC[C@H]1OC(=O)N(c2ccc(OC)cc2)[C@@H]1CC1CCCCC1 | 0.58 | 0.78 | 
CCCCN1C(=O)O[C@H](COC(=O)C2CCCCC2)[C@H]1CC1CCCCC1 | 0.54 | 0.7 | 
CCCCCCCC(=O)OC[C@H]1OC(=O)N(CCCC)[C@@H]1CCCc1ccccc1 | 0.56 | 0.69 | 
CCCCN1C(=O)O[C@H](COC(=O)Cc2ccccc2)[C@H]1CCCc1ccccc1 | 0.72 | 0.7 | 
CCCCCCCC(=O)OC[C@H]1OC(=O)N(c2ccccc2C(=O)OC)[C@@H]1Cc1ccccc1 | 1.19 | 1.06 | 
CCCCCCCC(=O)OC[C@H]1OC(=O)N(CCCC)[C@@H]1Cc1ccccc1 | 1.16 | 1.37 | 
CCCCCCCC(=O)OC[C@H]1OC(=O)N(CCCC)[C@@H]1CC1CCCCC1 | 0.73 | 1.05 | 
COC(=O)c1ccccc1N1C(=O)O[C@H](COC(=O)C2CCCCC2)[C@H]1CCCc1ccccc1 | 0.71 | 0.78 | 
COc1ccc(N2C(=O)O[C@H](COC(=O)Cc3ccccc3)[C@H]2CC2CCCCC2)cc1 | 0.71 | 1.05 | 
CCCCN1C(=O)O[C@H](COC(=O)Cc2ccccc2)[C@H]1Cc1ccccc1 | 0.48 | 0.36 | 
COc1ccc(N2C(=O)O[C@H](COC(=O)Cc3ccccc3)[C@H]2CCCc2ccccc2)cc1 | 0.75 |  | 
CCCCCCC(=O)OC[C@H]1OC(=O)N[C@@H]1Cc1ccccc1 |  |  | Kd [3]: 10 µM; Kd [6]: 14.3 µM
CCCCCCCC(=O)OC[C@H]1OC(=O)N(c2ccccc2C(=O)OC)[C@@H]1CC1CCCCC1 | 0.47 | 0.97 | 
CCCCCCCC(=O)OC[C@H]1OC(=O)N(c2ccc(OC)cc2)[C@@H]1CCCc1ccccc1 | 0.65 | 0.72 | 
COc1ccc(N2C(=O)O[C@H](COC(=O)C3CCCCC3)[C@H]2Cc2ccccc2)cc1 | 0.73 | 0.77 | 
COc1ccc(N2C(=O)O[C@H](COC(=O)C3CCCCC3)[C@H]2CC2CCCCC2)cc1 | 0.61 | 0.82 | 
